Patent US20140099385A1, “INHIBITION OF FATTY ACID AND C[…] BY CARBON MONOXIDE (CO)” (priority 2011, published 2014)

Assays:
[1] = 25° C.; cited from earlier work
PGRMC1 = PGRMC1 (Homo sapiens, UniProt O00264); assay: Absorption spectrum of the PGRMC1 protein (CO binding to heme); details: FIG. 3
Text: FIG. 3 is the graphs showing the absorption spectrum of the PGRMC1 protein.
Furthermore, PGRMC1 (Progesterone Receptor Membrane associated Component 1) was identified as one of the molecules involved with the inhibition of fatty acid or cholesterol uptake by CO. PGRMC1 is a heme binding protein, and an absorption peak is thought to have appeared at 419 nm because CO bound to the heme of PGRMC1 (FIG. 3). […] Thus, when the PGRMC1 gene was knocked down in a cell, the uptake of a fatty acid was suppressed (FIG. 4).

HuH7 cell [2] = assay: LDL uptake inhibition in a cell by CO (FITC-conjugated LDL, fluorescence microscope); format: cell-based, human; details: FITC-conjugated LDL 8 mg/ml, 1 μM CO—Ru, 2 hours, FIG. 2
Protocol: After culturing the HuH7 cell in the same manner as above in a dish covered with a slide glass, the medium was discarded, and fluorescence-labeled FITC-conjugated LDL (Molecular Probes) was added to serum free DMEM so as to give the final concentration of 8 mg/ml to carry out the culture for 2 hours (control). Additionally, at the same time with this procedure, 1 μM of CO—Ru was added in the same manner as above to carry out the analysis. After culturing, the medium was discarded, the cell was washed 3 times with PBS and DAPI reagent (2 ng/ml; Wako Pure Chemical Industries, Ltd.) was added to react for 5 minutes. The observation was carried out using a fluorescence microscope, whereby FITC-LDL derived Green fluorescence as the […] and DAPI derived Blue fluorescence were detected. […] On the other hand, in the cell to which CO—Ru was added, the margin of blue stained area is not stained green.

[3] = tested on: human hepatoma cell line HuH7 cell; assay: Stearic acid uptake inhibition in a cell by CO (Nile Red staining, fluorescence microscope); format: cell-based; details: 400 μM stearic acid, 1 μM test substance, 12 hours, FIG. 1
Protocol: The human hepatoma cell line HuH7 cell was seeded in a 6-well plate (Iwaki) covered with a slide glass (1 cm^2; matsunami glass) and cultured using DMEM+10% FCS in a CO2 incubator overnight. After the culture, the medium was discarded, 1% BSA (Wako Pure Chemical Industries, Ltd.) wherein stearic acid (sigma) was dissolved in serum free DMEM to give a final concentration of 400 μM was added thereto, and the cell was cultured again for 12 hours in a CO2 incubator. Further, as a CO sustained-release drug, 1 μM of CO—Ru (Sigma CORM2 ([Ru(CO)3Cl2]2)) was used) or 1 μM of ruthenium complex as a control was added together with a fatty acid to carry out the culture. Subsequently, the medium was discarded, the cell was washed 3 times with PBS, and Nile Red reagent (sigma) dissolved in PBS on the slide glass so as to be 100 ng/ml was added to react for 5 minutes, thereby staining the fatty acid. Further, the cell was washed 3 times with PBS, DAPI reagent (2 ng/ml; Wako Pure Chemical Industries, Ltd.) was added to react for 5 minutes, thereby staining the nucleus. The nucleus was observed using a fluorescence microscope, whereby Nile Red derived Green fluorescence as the fatty acid and DAPI derived Blue fluorescence were detected. […]

HuH7 cell [4] = assay: Stearic acid and palmitic acid uptake in a cell wherein the PGRMC1 gene is knocked down by siRNA; format: cell-based, human; details: HuH7 cell transfected with siRNA
Protocol: In the experiment of Example 1, siRNA (sequence: […]) (SEQ ID NO: 1) targeting PGRMC1 was transfected to the cell line HuH7 cell derived from human hepatocellular carcinoma by the lipofection method (Lipofectamin 2000, INVITROGEN Corporation) to knockdown the PGMRMC1 gene. In the same manner as in Example 1, 1% BSA (Wako Pure Chemical Industries, Ltd.) wherein stearic acid (sigma) or palmitic acid was dissolved to give the final concentration of 400 μM was added to the HuH7 cell wherein the PGRMC1 gene was knocked down, and the cell was cultured. The medium was discarded, the cell was washed 3 times with PBS, and Nile Red reagent (sigma) dissolved in PBS on the slide glass so as to be 100 ng/ml was added to react for 5 minutes, thereby staining the fatty acid. Further, the cell was washed 3 times with PBS, DAPI reagent (2 ng/ml; Wako Pure Chemical Industries, Ltd.) was added to react for 5 minutes, thereby staining the nucleus. The nucleus was observed using a fluorescence microscope, whereby Nile Red derived Green fluorescence as the fatty acid and DAPI derived Blue fluorescence were detected. […] On the other hand, when palmitic acid (FIG. 4C) or stearic acid (FIG. 4D) was added to the cell wherein the PGRMC1 gene was knocked down, the margin of blue stained area is not stained green.

PGRMC1, sequence (O00264 whole entry, species assumed): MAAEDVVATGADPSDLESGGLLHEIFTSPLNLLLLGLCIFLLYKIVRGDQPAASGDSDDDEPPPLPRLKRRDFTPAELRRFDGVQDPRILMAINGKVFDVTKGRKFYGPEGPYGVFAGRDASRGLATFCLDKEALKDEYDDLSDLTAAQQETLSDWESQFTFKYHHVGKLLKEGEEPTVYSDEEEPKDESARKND

[C-]#[O+] [CO, carbon monoxide]
amount of CO that can be dissolved in aqueous solution [1]: about 21.4 mL per liter | absorption peak on CO binding to the heme of PGRMC1 (PGRMC1): 419 nm

[C-]#[O+].[C-]#[O+].[C-]#[O+].[C-]#[O+].[C-]#[O+].[C-]#[O+].[Cl][Ru][Cl].[Cl][Ru][Cl] [CO—Ru, [Ru(CO)3Cl2]2]
uptake of LDL in the cell (FITC-LDL green fluorescence) (HuH7 cell [2]): the uptake of LDL was inhibited | uptake of stearic acid in the cell (green Nile Red staining) [3]: the uptake of stearic acid was inhibited

siRNA: siRNA (sequence: GAUGUGACCAAAGGCCCGCAAAUUCU) targeting PGRMC1 (listed as RNA, chemistry not given here)
uptake of palmitic acid in the PGRMC1 knockdown cell (HuH7 cell [4]; 400 μM palmitic acid, FIG. 4C): inhibited | uptake of stearic acid in the PGRMC1 knockdown cell (HuH7 cell [4]; 400 μM stearic acid, FIG. 4D): inhibited
